Experimental data reported in the supplement of paper PMC13207355.

How the values were obtained:
Settings in all cases: exposure time: 72 h
[1] = test system: E13 (patient-derived glioblastoma stem cells of classical subtype); assay: surviving fraction (nuclei count normalised to DMSO); higher = more cells surviving (less toxic)
[2] = test system: E21 (patient-derived glioblastoma stem cells of mesenchymal subtype); assay: as above
[3] = test system: E28 (patient-derived glioblastoma stem cells of classical subtype); assay: as above
[4] = test system: E31 (patient-derived glioblastoma stem cells of proneural subtype); assay: as above
[5] = test system: E34 (patient-derived glioblastoma stem cells of proneural subtype); assay: as above
[6] = test system: E57 (patient-derived glioblastoma stem cells of mesenchymal subtype); assay: as above
[7] = test system: FT3469 (normal neural stem cell line); assay: as above
[8] = test system: E13; assay: phenotypic distance (Euclidean, principal components) from DMSO controls (arbitrary units); higher = stronger morphological change
[9] = test system: E21; assay: as above
[10] = test system: E28; assay: as above
[11] = test system: E31; assay: as above
[12] = test system: E34; assay: as above
[13] = test system: E57; assay: as above
[14] = test system: FT3469; assay: as above
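Throughout, for phenotypic distance (Euclidean, principal components) from DMSO controls: cell Painting imaging in 384-well plates, CellProfiler features reduced to at least 20 principal components, Euclidean distance versus same-plate DMSO vehicle wells (0.1% v/v), median over six images per well.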
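Throughout, for surviving fraction (nuclei count normalised to DMSO): nuclei counted by high-content imaging of Hoechst-stained cells in laminin-coated 384-well plates, relative to 0.1% DMSO vehicle wells, with staurosporine as cell-death control.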

Nc1ncn([C@@H]2O[C@H](CO)[C@@H](O)[C@H]2O)c(=O)n1 [5-azacytidine]
Settings | phenotypic distance | surviving fraction
[1], 4.11523 nM | – | 0.808
[1], 12.34567901 nM | – | 0.874
[1], 37.037 nM | – | 0.939
[1], 111.1111111 nM | – | 0.778
[1], 333.333 nM | – | 0.755
[1], 1000 nM | – | 0.67
[1], 3000 nM | – | 0.358
[2], 4.11523 nM | – | 0.745
[2], 12.34567901 nM | – | 0.93
[2], 37.037 nM | – | 0.921
[2], 111.1111111 nM | – | 0.871
[2], 333.333 nM | – | 0.665
[2], 1000 nM | – | 0.6
[2], 3000 nM | – | 0.426
[3], 4.11523 nM | – | 0.899
[3], 12.34567901 nM | – | 1.22
[3], 37.037 nM | – | 0.711
[3], 111.1111111 nM | – | 0.969
[3], 333.333 nM | – | 0.753
[3], 1000 nM | – | 0.984
[3], 3000 nM | – | 0.497
[4], 4.11523 nM | – | 0.945
[4], 12.34567901 nM | – | 0.84
[4], 37.037 nM | – | 0.848
[4], 111.1111111 nM | – | 0.9
[4], 333.333 nM | – | 0.718
[4], 1000 nM | – | 0.644
[4], 3000 nM | – | 0.298
[5], 4.11523 nM | – | 0.97
[5], 12.34567901 nM | – | 1.02
[5], 37.037 nM | – | 1.01
[5], 111.1111111 nM | – | 1.07
[5], 333.333 nM | – | 0.862
[5], 1000 nM | – | 0.731
[5], 3000 nM | – | 0.643
[6], 4.11523 nM | – | 0.959
[6], 12.34567901 nM | – | 0.904
[6], 37.037 nM | – | 0.961
[6], 111.1111111 nM | – | 0.841
[6], 333.333 nM | – | 0.78
[6], 1000 nM | – | 0.507
[6], 3000 nM | – | 0.287
[7], 4.11523 nM | – | 0.82
[7], 12.34567901 nM | – | 0.768
[7], 37.037 nM | – | 0.86
[7], 111.1111111 nM | – | 0.944
[7], 333.333 nM | – | 0.915
[7], 1000 nM | – | 0.734
[7], 3000 nM | – | 0.665
[8], 4.11523 nM | 0.922 | –
[8], 12.34567901 nM | 0.542 | –
[8], 37.037 nM | 0.817 | –
[8], 111.1111111 nM | 1.58 | –
[8], 333.333 nM | 1.47 | –
[8], 1000 nM | 3 | –
[8], 3000 nM | 6.57 | –
[9], 4.11523 nM | 1.24 | –
[9], 12.34567901 nM | 5.31 | –
[9], 37.037 nM | 1.2 | –
[9], 111.1111111 nM | 1.66 | –
[9], 333.333 nM | 1.85 | –
[9], 1000 nM | 2.19 | –
[9], 3000 nM | 3.53 | –
[10], 4.11523 nM | 0.861 | –
[10], 12.34567901 nM | 1.19 | –
[10], 37.037 nM | 1.09 | –
[10], 111.1111111 nM | 0.941 | –
[10], 333.333 nM | 0.932 | –
[10], 1000 nM | 1.03 | –
[10], 3000 nM | 1.84 | –
[11], 4.11523 nM | 1.21 | –
[11], 12.34567901 nM | 1.33 | –
[11], 37.037 nM | 1.03 | –
[11], 111.1111111 nM | 0.932 | –
[11], 333.333 nM | 1.18 | –
[11], 1000 nM | 1.85 | –
[11], 3000 nM | 3.43 | –
[12], 4.11523 nM | 0.558 | –
[12], 12.34567901 nM | 0.75 | –
[12], 37.037 nM | 1.12 | –
[12], 111.1111111 nM | 0.943 | –
[12], 333.333 nM | 1.52 | –
[12], 1000 nM | 1.39 | –
[12], 3000 nM | 2.19 | –
[13], 4.11523 nM | 0.981 | –
[13], 12.34567901 nM | 1.07 | –
[13], 37.037 nM | 1.13 | –
[13], 111.1111111 nM | 1.59 | –
[13], 333.333 nM | 1.59 | –
[13], 1000 nM | 3.31 | –
[13], 3000 nM | 5.71 | –
[14], 4.11523 nM | 1.08 | –
[14], 12.34567901 nM | 1.06 | –
[14], 37.037 nM | 0.921 | –
[14], 111.1111111 nM | 0.795 | –
[14], 333.333 nM | 0.957 | –
[14], 1000 nM | 1.34 | –
[14], 3000 nM | 2.03 | –

O=C(/C=C/c1ccc([N+](=O)[O-])cc1)/C=C1/C(=O)Nc2ccc(F)cc21 [APIO-EE-07]
Settings | phenotypic distance | surviving fraction
[1], 2.7 nM | – | 0.978
[1], 8.2 nM | – | 0.955
[1], 24.7 nM | – | 0.964
[1], 74.1 nM | – | 1.0673
[1], 222.2 nM | – | 0.994
[1], 666.7 nM | – | 0.9741
[1], 2000 nM | – | 0.841
[2], 2.7 nM | – | 0.996
[2], 8.2 nM | – | 0.929
[2], 24.7 nM | – | 1.04
[2], 74.1 nM | – | 0.991
[2], 222.2 nM | – | 0.989
[2], 666.7 nM | – | 1.03
[2], 2000 nM | – | 0.642
[3], 2.7 nM | – | 1.1
[3], 8.2 nM | – | 0.992
[3], 24.7 nM | – | 1
[3], 74.1 nM | – | 1.04
[3], 222.2 nM | – | 0.944
[3], 666.7 nM | – | 1.054
[3], 2000 nM | – | 0.293
[4], 2.7 nM | – | 0.971
[4], 8.2 nM | – | 1.07
[4], 24.7 nM | – | 0.973
[4], 74.1 nM | – | 0.943
[4], 222.2 nM | – | 0.958
[4], 666.7 nM | – | 0.951
[4], 2000 nM | – | 0.448
[5], 2.7 nM | – | 0.95
[5], 8.2 nM | – | 0.991
[5], 24.7 nM | – | 1
[5], 74.1 nM | – | 0.971
[5], 222.2 nM | – | 0.979
[5], 666.7 nM | – | 0.87
[5], 2000 nM | – | 0.731
[6], 2.7 nM | – | 0.99
[6], 8.2 nM | – | 1.01
[6], 24.7 nM | – | 1.03
[6], 74.1 nM | – | 1.04
[6], 222.2 nM | – | 0.999
[6], 666.7 nM | – | 1.02
[6], 2000 nM | – | 0.791
[7], 2.7 nM | – | 0.932
[7], 8.2 nM | – | 1.01
[7], 24.7 nM | – | 1.04
[7], 74.1 nM | – | 1.09
[7], 222.2 nM | – | 0.975
[7], 666.7 nM | – | 0.982
[7], 2000 nM | – | 0.775
[8], 2.7 nM | 0.638 | –
[8], 8.2 nM | 0.674 | –
[8], 24.7 nM | 0.47 | –
[8], 74.1 nM | 0.494 | –
[8], 222.2 nM | 0.491 | –
[8], 666.7 nM | 0.644 | –
[8], 2000 nM | 0.888 | –
[9], 2.7 nM | 0.833 | –
[9], 8.2 nM | 0.648 | –
[9], 24.7 nM | 0.526 | –
[9], 74.1 nM | 2.82 | –
[9], 222.2 nM | 0.86 | –
[9], 666.7 nM | 0.927 | –
[9], 2000 nM | 2.33 | –
[10], 2.7 nM | 0.693 | –
[10], 8.2 nM | 0.629 | –
[10], 24.7 nM | 0.459 | –
[10], 74.1 nM | 0.507 | –
[10], 222.2 nM | 1.59 | –
[10], 666.7 nM | 0.58 | –
[10], 2000 nM | 3.56 | –
[11], 2.7 nM | 0.66 | –
[11], 8.2 nM | 0.527 | –
[11], 24.7 nM | 0.585 | –
[11], 74.1 nM | 0.697 | –
[11], 222.2 nM | 0.744 | –
[11], 666.7 nM | 0.876 | –
[11], 2000 nM | 1.95 | –
[12], 2.7 nM | 0.787 | –
[12], 8.2 nM | 0.702 | –
[12], 24.7 nM | 0.648 | –
[12], 74.1 nM | 0.775 | –
[12], 222.2 nM | 0.511 | –
[12], 666.7 nM | 1.19 | –
[12], 2000 nM | 1.13 | –
[13], 2.7 nM | 0.81 | –
[13], 8.2 nM | 0.581 | –
[13], 24.7 nM | 0.418 | –
[13], 74.1 nM | 0.557 | –
[13], 222.2 nM | 0.584 | –
[13], 666.7 nM | 0.739 | –
[13], 2000 nM | 2.46 | –
[14], 2.7 nM | 0.776 | –
[14], 8.2 nM | 0.699 | –
[14], 24.7 nM | 2.24 | –
[14], 74.1 nM | 1.29 | –
[14], 222.2 nM | 0.569 | –
[14], 666.7 nM | 0.6 | –
[14], 2000 nM | 2.12 | –
